We go through three molecules from patent publication US8305585B2, “Fiber-optic assay apparatus based on phase-shift interferometry” (Pall Corporation, priority 2003, dated 2012).

For experiment [1], the system named is anti-Lewis Y antibody. Nature of the experiment: Negative control: binding to immobilized irrelevant antibody. Conditions: 200 μg/mL biotin. The protocol:
Another negative control was carried out using an irrelevant antibody (anti-Lewis Y antibody from Calbiochem, San Diego Calif.; cat #434636) immobilized in an identical fashion to the anti-biotin antibody above. This immobilized antibody was exposed to a solution of 200 μg/mL biotin.

Experiment [2] concerns mouse anti-biotin antibody. Nature of the experiment: Small molecule binding to immobilized anti-biotin antibody on NHS-ester activated tip. The conditions noted are these: biotin 200 μg/mL, sucrose 2 mg/mL in PBS; FIG. 10.
Description: This example illustrates the binding of a low molecular weight molecule binding to an immobilized high molecular weight molecule. […] The tip was rinsed with PBS for 2 minutes. Following the PBS rinse, the tip was quenched with an aqueous solution of 100 μM ethanolamine pH 8.5 (Sigma-Aldrich Chemical Company, St Louis, Mo.; cat #E9508) for 5 minutes and then was rinsed again in PBS for 2 minutes.
Controls using a solution of sucrose (Sigma-Aldrich Chemical Company, St Louis, Mo.; cat #S8501) (2 mg/mL) and PBS were carried out on the second and the third fibers to determine baseline noise.
A short description of experiment [3]: Sequential binding test on biotin-derivatized sensor tip. The conditions noted are these: 50 μg/ml in PBS, 9 minutes; FIG. 6. The source says: The two-layer configuration on the tip of an optic fiber is used for this test. The thickness of the first Ta2O5 layer is 25 nm and the thickness of the second SiO2 layer is 770 nm. The fiber was purchased from Ocean Optics (Dunedin, Fla.). It was manually cut into segments that are 40 mm long. Both ends of these segments were polished to standard mirror surface quality. The polishing method used here was exactly the same as those for optical lenses and mirrors. One surface of these fiber segments was outsourced to an optical coating house for Ta2O5 layer and SiO2 layer. This vendor employed an ion-beam assisted physical vapor deposition (IAPVD) coater made by […] is a commonly used coating technique for anti-reflection and optical filters. The experimental steps included the following (all steps are performed at room temperature unless otherwise noted): The fiber tip was coated with a polymer monolayer derivatized with biotin. The polymer monolayer was prepared using a biotinylated lipid (custom). This lipid was using to form a lipid monolayer on the surface of water solution. The monolayer was cross linked using UV light for 15minutes. Clean, dry fibers were then brought in contact with the floating thin film and the biotin polymer was adsorbed onto the fiber tip. The fibers were then dryed at 60° C. for 1 hour. […]

Take `O=C(O)CCCC[C@@H]1SC[C@@H]2NC(=O)N[C@@H]21` [biotin]: the “binding to irrelevant antibody” value in experiment [1] is “lack of biotin binding”. In experiment [2], the “change in optical thickness on exposure (binding)” value was “increase in optical thickness”.

As to `OC[C@H]1O[C@@](CO)(O[C@H]2O[C@H](CO)[C@@H](O)[C@H](O)[C@H]2O)[C@@H](O)[C@@H]1O` [sucrose], the “change in optical thickness on exposure (binding)” value in experiment [2] is “no detectable increase over baseline”.

Turning to “streptavidin: streptavidin (Pierce Biotechnology, cat #21122)”, in experiment [3], the “binding to immobilized biotin (7th order valley phase shift)” value is on record as “binding”.
